Columns and labels:
corneas = assay: Corneal cytokines after intrastromal injection (MILLIPLEX MAP mouse cytokine assay); type: in vivo; conditions: intrastromal 0.5 μl, 10^−4, 10^−5, 10^−6 M; 24 and 48 hours
Description: Corneas were injected intrastromally with 0.5 μl of peptide 95-122 at a final concentration of 10^−4 M, 10^−5 M, and 10^−6 M and vehicle (saline) control. Corneas were collected and flash frozen at 24 hours and 48 hours. Corneal lysates were analyzed for cytokines using the MILLIPLEX® MAP mouse cytokine assay for IL-7 (A), IL-15 (B), IFN-γ (C), MIP1-α (D) (EMD Millipore Corp., Billerica, Mass.). The means of independent experimental values are shown ±SEM. ***P<0.001, **P<0.01, *P<0.05 by unpaired t-test as compared to vehicle treated controls. […] Corneas were injected intrastromally with 0.5 μl of peptide 95-122 at a final concentration of 10^−4 M, 10^−5 M, and 10^−6 M and vehicle (saline) control. Corneas were collected and flash frozen at 24 hours and 48 hours. Corneal lysates were analyzed for cytokines using the MILLIPLEX® MAP mouse cytokine assay for MIP1-β (EMD Millipore Corp., Billerica, Mass.). **P<0.01, *P<0.05 by unpaired t-test as compared to vehicle treated controls. […] Corneas were injected intrastromally with 0.5 μl of peptide 95-122 at a final concentration of 10^−4 M, 10^−5 M, and 10^−6 M and vehicle (saline) control. Corneas were collected and flash frozen at 24 hours and 48 hours. Corneal lysates were analyzed for cytokines using the MILLIPLEX® MAP mouse cytokine assay for KC (A), IL-1β (B), and GM-CSF (C) (EMD Millipore Corp., Billerica, Mass.). **P<0.01, *P<0.05 by unpaired t-test as compared to vehicle treated controls.

swine skin wounds = assay: Swine dermal wound model, histological evaluation; type: in vivo; conditions: day 14 post-wounding
Description: The characteristics that were measured are required to indicate features of a well-healed wound. Inflammation should be low and re-epithelialization high.
Full thickness excisional wounds were induced on the dorsum of swine (N=3) using a 1.0 cm biopsy punch. Treatments were administered (0.20 ml) to each wound (N=6 wounds per group), and the wounds were dressed with standard occlusive dressing ([…]™, 3M Corporation, St. Paul, Minn.). Treatments were reapplied daily and dressings changed. Clinical wound healing observations and wound area (2 mm) measurements were performed on days 0, 3, 5, 7, 10, and 14 post-wounding. Wound area (2 mm) data were expressed as percentage (%) of wound healing. Animals were terminated on day 14 with wounds harvested and processed for histological evaluation. […] All peptide formulation treatment groups healed faster with greater rate of closure and re-epithelialization over time, as compared to the saline control (Group A).
The histology correlated with the clinical observations. […] There were minimal differences in the amount or character of granulation tissue, inflammation, and angiogenesis. All the wounds were well filled and vascularized.

Sequence: LDREANLTSSVTILPLPLQNATVEAGTR (listed as Homo sapiens) [Peptide 95-122]
- GM-CSF in corneal lysates (corneas): significantly increases
- IFN-γ in corneal lysates (corneas): significantly increases
- IL-1β in corneal lysates (corneas): significantly increases
- IL-7 in corneal lysates (corneas): significantly increases
- IL-15 in corneal lysates (corneas): significantly increases
- KC in corneal lysates (corneas): significantly increases
- MIP1-0 (MIP1-β) in corneal lysates (corneas): significantly increases
- MIP1-α in corneal lysates (corneas): significantly increases
- epidermal resurfacing and maturation of the epidermis versus saline control (swine skin wounds): greater extent of epidermal resurfacing and maturation of the epidermis
- Histopathology Results, Mean Angiogenesis (swine skin wounds; 3 mg/ml): 2.3
- Histopathology Results, Mean Epithelization (swine skin wounds; 3 mg/ml): 4.0
- Histopathology Results, Mean Granulation (swine skin wounds; 3 mg/ml): 4.0
- Histopathology Results, Mean Inflammation (swine skin wounds; 3 mg/ml): 0.5
